Values quoted from earlier work as cited in paper PMC3362725, “An open-label, phase 1 study evaluating safety, tolerability, and pharmacokinetics of linifanib (ABT-869) in Japanese patients with solid tumors” (Cancer Chemotherapy and Pharmacology, 2012).

Design: method as in PMID 17634482, PMID 17557949, PMID 21131369
Conditions: mixed-population TKI phase 1 studies, phase 2 recommended dose levels; cited from earlier work

| SMILES | patients with Grade 3 hypertension |
| --- | --- |
| Cc1cc2c(F)c(Oc3ncnn4cc(OC[C@@H](C)O)c(C)c34)ccc2[nH]1 [brivanib] | 14–20% |
| CC1(C)CNc2cc(NC(=O)c3cccnc3NCc3ccncc3)ccc21 [motesanib] | 14–20% |
